{"source": "patent US4539149A", "about": "“β-Lactam antibacterial agents” (Beecham Group p.l.c., priority 1981, dated 1985)", "key": {"K. aerogenes T767": {"test_system": "K. aerogenes T767", "assay": "in vivo test in mice against experimental infection, K. aerogenes T767", "details": "Klebsiella aerogenes, sc, mice (5 mice/group), s.c., dosed at 1 and 5 hours after infection, read-out: Total s.c. CD50", "protocol": "(§1) The compound of Example 5 was tested in vivo in mice against experimental infections.\n(§2) Organism Total* s.c. CD50 (Mg/Kg)\n(§3) *dosed at 1 and 5 hours after infection"}, "P. mirabilis 889": {"test_system": "P. mirabilis 889", "assay": "MIC against P. mirabilis 889", "assay_type": "cell-based", "details": "Proteus mirabilis, 889, P. mirabilis 889"}, "[1]": {"assay": "blood concentration in mice after subcutaneous administration", "assay_type": "in vivo", "details": "mouse, sc, mice (5), 50 mg/kg", "protocol": "The compound of Example 5 was administered to mice (5) by the subcutaneous route at a dosage of 50 mg/kg and the blood concentration determined."}, "E. coli 96 R+": {"test_system": "E. coli 96 R+", "assay": "in vivo test in mice against experimental infection, E. coli 96 R+", "details": "Escherichia coli, sc, mice (5 mice/group), s.c., dosed at 1 and 5 hours after infection, read-out: Total s.c. CD50", "protocol": "as §1, §2, §3"}, "E. coli 96 R-": {"test_system": "E. coli 96 R-", "assay": "in vivo test in mice against experimental infection, E. coli 96 R-", "details": "Escherichia coli, sc, mice (5 mice/group), s.c., dosed at 1 and 5 hours after infection, read-out: Total s.c. CD50", "protocol": "as §1, §2, §3"}}, "note": "Where a name gives a salt, the structure may show the parent alone.", "data": [{"smiles": "CCN1CCN(C(=O)N[C@@H](C(=O)N[C@]2(NC=O)C(=O)N3[C@@H](C(=O)O)C(C)(C)S[C@@H]32)c2ccc(O)cc2)C(=O)C1=O", "note": "[Example 5, 6α-Formamido-6β-[D-2-[(4-ethyl-2,3-dioxopiperazin-1-yl)carbonylamino]-2-(4-hydroxyphenyl)acetamido]penicillanic acid, sodium salt]", "values": [{"measurement": "ED50", "setting": "K. aerogenes T767", "result": 3.7, "unit": "mg/kg"}, {"measurement": "MIC", "setting": "P. mirabilis 889", "result": 0.1, "unit": "µg/mL"}, {"measurement": "AUC", "setting": "[1]", "result": 11000, "unit": "ng·h/mL"}, {"measurement": "concentration at 5 min", "setting": "[1]; 5 mins", "result": 24400, "unit": "ng/mL"}, {"measurement": "concentration at 10 min", "setting": "[1]; 10 mins", "result": 23200, "unit": "ng/mL"}, {"measurement": "concentration at 20 min", "setting": "[1]; 20 mins", "result": 14500, "unit": "ng/mL"}, {"measurement": "concentration at 0.5 h", "setting": "[1]; 30 mins", "result": 11000, "unit": "ng/mL"}, {"measurement": "concentration at 1 h", "setting": "[1]; 60 mins", "result": "< 900", "unit": "ng/mL"}, {"measurement": "concentration at 2 h", "setting": "[1]; 120 mins", "result": "< 900", "unit": "ng/mL"}, {"measurement": "ED50", "setting": "E. coli 96 R+", "result": 5.2, "unit": "mg/kg"}, {"measurement": "ED50", "setting": "E. coli 96 R-", "result": "< 3.1", "unit": "mg/kg"}]}]}
